Assay results taken from patent US4560676A, “N^α -desacetylthymosinα1 and process” (The Rockefeller University, priority 1981, dated 1985).
Where no end group is shown, it is not given here.

Key:
[1] = system: spleen cells of adult thymectomized mice; assay: rosette inhibition assay (azathioprine-sensitive rosette assay); assay type: cell-based; details: restoration of azathioprine sensitivity in rosette formation
Protocol: The desacetylthymosin α1 prepared and characterized above was compared with thymosin α1, prepared on both benzyhydrylamine and PAM resins in the rosette inhibition assay (azathioprine-sensitive rosette assay) as described by Dardenne and Bach in "The Biological Action of Thymic Hormones" (van Bekkum, D. K., Ed.), page 235 (Kooyker Scientific Publications, Rotterdam, 1975). In this assay the peptides are tested for ability to restore azathioprine sensitivity in rosette formation by spleen cells of adult thymectomized mice.

[2] = system: T-cell differentiation and function; details: several in vitro and in vivo assay systems; cited from earlier work

Row | Substance | activity in rosette inhibition assay compared with each other and with natural thymosin α1 [1] | activity relative to fraction 5 [2] [times]
1 | SDAAVDTSSEITTKDLKEKKEVVEEAEN [desacetylthymosin α1, N^α -desacetylthymosin α1] | equally active | 
2 | thymosin α1 (SDAAVDTSSEITTKDLKEKKEVVEEAEN; ends and bridges not checked; UniProt P06454 2-29, looked up) [synthetic thymosin α1 prepared on benzhydrylamine and PAM resins; component of thymosin fraction 5] | equally active | 10 to 1000
